According to patent publication US20210214303A1, “SCORPION VENOM BENZOQUINONE DERIVATIVES AND USES THEREOF” (priority 2018, published 2021):
In brackets after ≈: the same amount, converted by molar mass. Entries after “also recorded” stand apart in the source; their conditions may differ. Read-outs that look alike come from different tables or passages of the source.

Experiments:
[1] = system: Mycobacterium tuberculosis; type: cell-based; settings: electron microscopy
Staphylococcus aureus = assay: broth microdilution assay (MIC); type: cell-based; settings: S. aureus, read-out: minimum inhibitory concentration (MIC)
Description: FIG. 3D illustrates the determination of the minimal inhibitory concentrations (MICs) of the red and blue 1,4 benzoquinones against Staphylococcus aureus. The MICs determined by the broth microdilution assay are 4 μg/mL for the red 1,4 benzoquinone and 6 μg/mL for the blue 1,4 benzoquinone. Ampicillin was used as a positive control. Each result is reported as the mean±SD.
This difference was confirmed using a broth microdilution assay (FIG. 3D). The minimum inhibitory concentration (MIC) for S. aureus growth was 4 μg/mL for the red 1,4 benzoquinone and 6 μg/mL for the blue 1,4 benzoquinone (FIG. 3D, Table 1). Ampicillin (MIC=0.5 μg/mL) was used as a positive control (ESCMID Eo (2003) Clin. Microbiol. Infect. 9: ix-xv; Pieterse et al., (2010) Brazil. J. Microbiol. 41: 133-145). These compounds were bactericidal at their MICs, killing 90% of S. aureus in 6 h and 99.9% in 24 h (Table 2).

[2] = system: TE 671 (rhabdomyosarcoma cells); assay: cytotoxicity assay, LDH release; type: cell-based, human; settings: 1, 5, and 25 μM, 12 hours
Description: (§1) Cytotoxicity to PBMCs and to Neoplastic Cells: The cytotoxicity of the 1,4 benzoquinones of the disclosure was tested with peripheral blood mononuclear cells (PBMCs) and various human neoplastic cell lines: A549 (adenocarcinomic lung epithelial cells), Jurkat (T cell leukemia), TE 671 (rhabdomyosarcoma cells) and SH-SY5Y (bone marrow neuroblastoma cells).
(§2) PBMCs were obtained from healthy blood donors and isolated by Ficoll-Paque PLUS density gradient centrifugation and resuspended in RPMI-1640 medium supplemented with 10% fetal calf serum. Cells were incubated at 37° C. in 5% CO2 overnight and non-adherent cells were recovered and used for subsequent experiments. The neoplastic cell lines were cultured according to the ATCC guidelines.
(§3) For cytotoxicity assays, cells were resuspended in DMEM without phenol red, supplemented with 2% heat-inactivated fetal calf serum. Cells were plated in 96-well polystyrene cell culture plates (2×10^4 to 2×10^5 cells/well depending on the cell type) and incubated at 37° C. in 5% CO2 for 8 hours to promote cell adhesion to the well's surface. The red and blue 1,4 benzoquinones were administered to achieve final concentrations of 1, 5, and 25 μM. Cells were then incubated at 37° C. in 5% CO2 for 12 hours. Following the incubation period, plates were centrifuged at 300×g for 10 minutes and supernatants were harvested to evaluate cell viability with the CytoTox 96@ Non-Radioactive Cytotoxicity Assay (Promega). This assay quantitatively measures lactate dehydrogenase (LDH), a stable cytosolic enzyme that is released upon cell lysis. The released LDH in the culture supernatants was measured with a colorimetric coupled enzymatic assay according to the manufacturer's instructions.

Jurkat (T cell leukemia) = assay: cytotoxicity assay, LDH release; type: cell-based, human; settings: 1, 5, and 25 μM, 12 hours
Description: as §1, §2, §3

[3] = system: A549 (adenocarcinomic lung epithelial cells); assay: cytotoxicity assay, LDH release; type: cell-based, human; settings: 1, 5, and 25 μM, 12 hours
Description: as §1, §2, §3

[4] = system: SH-SY5Y (bone marrow neuroblastoma cells); assay: cytotoxicity assay, LDH release; type: cell-based, human; settings: 1, 5, and 25 μM, 12 hours
Description: as §1, §2, §3

[5] = system: peripheral blood mononuclear cells (PBMCs); assay: cytotoxicity assay, LDH release; type: cell-based, human; settings: 25 μM, 12 hours
Description: FIG. 14B illustrates a cytotoxic effect of the 1,4 benzoquinones of the disclosure on peripheral blood mononuclear cells (PBMCs). PBMCs were incubated with the red and blue 1,4 benzoquinones at a concentration of 25 μM for 12 hours, and cell death was evaluated by the release of the stable cytosolic enzyme lactate dehydrogenase. […] Each result is reported as the mean±SD.
as §1, §2, §3

[6] = intratracheal treatment of healthy mice, lung histology; type: in vivo; settings: 8 μg intratracheally for one month
Description: FIGS. 21C-21F illustrate representative micrographs of lung (hematoxylin-eosin staining, 250× magnification) from the untreated group (FIG. 21C) showing extensive areas of pneumonia (asterisk). […] A representative micrograph of a healthy mouse treated intratracheally for one month with 8 μg of the blue 1,4 benzoquinone is shown in FIG. 21E.
The bactericidal activity of the blue compound was tested against progressive pulmonary tuberculosis using an experimental infection model in BALB/c mice. […] This same dose was administered intratracheally to healthy mice for one month, after which they were sacrificed, and their lungs examined.

Jurkat cells = assay: Annexin V / viability dye flow cytometry apoptosis assay; type: cell-based; settings: 25 μM; 0, 4, 8 and 12 h
Description: In this assay, Jurkat cells were incubated with either the red or blue 1,4 benzoquinone at a concentration of 25 μM for 0, 4, 8 and 12 h. Cells were then stained with the Fixable Viability Dye eFluor 780 and FITC Annexin V and analyzed using flow cytometry. Positive staining with Annexin V is a marker of early apoptosis, and positive staining with both Annexin V and the viability dye is a marker of late apoptosis/necrosis. Double negatives are live cells. Cells were grouped into three categories (live, early apoptotic, and late apoptotic/necrotic). Data from three independent experiments are shown as mean±SEM (standard error of mean).

[7] = system: Mycobacterium tuberculosis MDR strain; assay: colony-forming units after treatment at the MIC; type: cell-based

## COC1=CC(=O)C(SC)=C(SC)C1=O [blue 1,4 benzoquinone, 5-methoxy-2,3-bis(methylthio)cyclohexa-2,5-diene-1,4-dione]
[1]
  ultrastructural changes in Mycobacterium tuberculosis bacilli: ultrastructural changes were promoted
[1]; listed as blue benzoquinone
  ultrastructural changes in Mycobacterium tuberculosis bacilli: ultrastructural changes
Staphylococcus aureus
  MIC: 6 µg/mL (≈ 26.1 µM)
[2]
  cytotoxic effect on TE 671 cells (LDH release): comparably potent in inducing death
Jurkat (T cell leukemia)
  cytotoxic effect on Jurkat cells (LDH release): comparably potent in inducing death
[3]
  cytotoxic effect on A549 cells (LDH release): remained relatively unaffected
[4]
  cytotoxic effect on SH-SY5Y cells (LDH release): comparably potent in inducing death
[5]
  PBMCs killed: 50%
  cytotoxic effect on PBMCs (LDH release): cytotoxic against PBMCs
[6]
  pulmonary histology of healthy mice: The pulmonary histology is normal, with the exception of occasional mild inflammatory infiltrates found around venules; also recorded: only minor inflammatory infiltrates found around the venules
[6]; trichrome Masson staining
  lung fibrosis in healthy mice: No fibrosis was seen
Jurkat cells
  apoptosis (Annexin V staining, loss of cell membrane asymmetry): triggers apoptosis
[7]
  killing in comparison to the inoculum bacteria concentration: more than 90%

## COC1=CC(=O)C(SC)=C(OC)C1=O [red 1,4 benzoquinone, 3,5-dimethoxy-2-(methylthio)cyclohexa-2,5-diene-1,4-dione]
Staphylococcus aureus
  MIC: 4 µg/mL (≈ 18.7 µM)
[2]
  cytotoxic effect on TE 671 cells (LDH release): comparably potent in inducing death
Jurkat (T cell leukemia)
  cytotoxic effect on Jurkat cells (LDH release): comparably potent in inducing death
[3]
  cytotoxic effect on A549 cells (LDH release): remained relatively unaffected
[4]
  cytotoxic effect on SH-SY5Y cells (LDH release): comparably potent in inducing death
[5]
  PBMCs killed: 60%
  cytotoxic effect on PBMCs (LDH release): cytotoxic against PBMCs
Jurkat cells
  apoptosis (Annexin V staining, loss of cell membrane asymmetry): triggers apoptosis
